Earlier results in patent US20250319042A1, “SKIN CARE PRODUCT WITH LAPACHOL AND METHOD FOR USE THEREOF” (priority 2024, published 2025).

Key:
[1] = tested on: tumor necrosis factor alpha (TNF-a); conditions: in cell culture
MMP-9 = conditions: in cell culture
[2] = tested on: matrix metalloproteinase 3 (MMP-3); conditions: in cell culture
MMP-8 = conditions: in cell culture
prostaglandin E2 (PGE2) = conditions: in cell culture

Row | inhibition of MMP-3 [2] | solubility | Compound | inhibition of TNF-a [1] | inhibition of MMP-9 (MMP-9) | inhibition of MMP-8 (MMP-8) | inhibition of PGE2 (prostaglandin E2 (PGE2))
1 | inhibits |  | CC1(C)CCC2=C(O1)c1ccccc1C(=O)C2=O [beta-lapachone] | inhibits | inhibits | inhibits | inhibits
2 |  | primarily oil-soluble | CC(C)=CCC1=C(O)C(=O)c2ccccc2C1=O [lapachol, 2-hydroxy-3-(3-methyl-2-butenyl)-1,4-naphtoquinone] |  |  |  | 
